Assay results reported in publication PMC7377474, “Preclinical characterization of CPL302-253, a selective inhibitor of PI3Kδ, as the candidate for the inhalatory treatment and prevention of Asthma” (PLoS ONE, 2020).

Columns and labels:
Assay in all cases: SafetyScan44
Type in all cases: cell-based
[1] = molecular target: T1, AVPR1A (Homo sapiens, UniProt P37288); settings: 10 μM
T1 construct: purchased DiscoverX (Eurofins) SafetyScan44
Method: (§1) SafetyScan44 assay was performed by DiscoverX according to service provider’s protocol.

[2] = molecular target: T2, INSR (Homo sapiens, UniProt P06213); settings: 10 μM; Inhibitor mode
T2 construct: purchased DiscoverX (Eurofins) SafetyScan44
Method: as §1

[3] = molecular target: T3, OPRM1 (Homo sapiens, UniProt P35372); settings: 10 μM
T3 construct: purchased DiscoverX (Eurofins) SafetyScan44
Method: as §1

[4] = molecular target: T4, CHRM2 (Homo sapiens, UniProt P08172); settings: 10 μM
T4 construct: purchased DiscoverX (Eurofins) SafetyScan44
Method: as §1

[5] = molecular target: T5, ADRA1A (Homo sapiens, UniProt P35348); settings: 10 μM
T5 construct: purchased DiscoverX (Eurofins) SafetyScan44
Method: as §1

[6] = molecular target: T6, COX2 (Homo sapiens, UniProt P35354); settings: 10 μM; Inhibitor mode
T6 construct: purchased DiscoverX (Eurofins) SafetyScan44
Method: as §1

[7] = molecular target: T7, OPRK1 (Homo sapiens, UniProt P41145); settings: 10 μM
T7 construct: purchased DiscoverX (Eurofins) SafetyScan44
Method: as §1

[8] = system: GABAA; settings: 10 μM
Method: as §1

[9] = molecular target: T8, ROCK1 (Homo sapiens, UniProt Q13464); settings: 10 μM; Inhibitor mode
T8 construct: purchased DiscoverX (Eurofins) SafetyScan44
Method: as §1

[10] = molecular target: T9, HTR2A (Homo sapiens, UniProt P28223); settings: 10 μM
T9 construct: purchased DiscoverX (Eurofins) SafetyScan44
Method: as §1

[11] = molecular target: T10, HRH2 (Homo sapiens, UniProt P25021); settings: 10 μM
T10 construct: purchased DiscoverX (Eurofins) SafetyScan44
Method: as §1

[12] = molecular target: T11, LCK (Homo sapiens, UniProt P06239); settings: 10 μM; Inhibitor mode
T11 construct: purchased DiscoverX (Eurofins) SafetyScan44
Method: as §1

[13] = molecular target: T12, ADORA2A (Homo sapiens, UniProt P29274); settings: 10 μM
T12 construct: purchased DiscoverX (Eurofins) SafetyScan44
Method: as §1

[14] = molecular target: T13, DAT (Homo sapiens, UniProt Q01959); settings: 10 μM; Blocker mode
T13 construct: purchased DiscoverX (Eurofins) SafetyScan44
Method: as §1

[15] = molecular target: T14, MAOA (Homo sapiens, UniProt P21397); settings: 10 μM; Inhibitor mode
T14 construct: purchased DiscoverX (Eurofins) SafetyScan44
Method: as §1

[16] = molecular target: T15, CHRM1 (Homo sapiens, UniProt P11229); settings: 10 μM
T15 construct: purchased DiscoverX (Eurofins) SafetyScan44
Method: as §1

[17] = molecular target: T16, NAV1.5 (Homo sapiens, UniProt Q14524); settings: 10 μM; Blocker mode
T16 construct: purchased DiscoverX (Eurofins) SafetyScan44
Method: as §1

[18] = molecular target: T17, HTR1B (Homo sapiens, UniProt P28222); settings: 10 μM
T17 construct: purchased DiscoverX (Eurofins) SafetyScan44
Method: as §1

[19] = molecular target: T18, COX1 (Homo sapiens, UniProt P23219); settings: 10 μM; Inhibitor mode
T18 construct: purchased DiscoverX (Eurofins) SafetyScan44
Method: as §1

[20] = molecular target: T19, HTR2B (Homo sapiens, UniProt P41595); settings: 10 μM
T19 construct: purchased DiscoverX (Eurofins) SafetyScan44
Method: as §1

[21] = molecular target: T20, HTR1A (Homo sapiens, UniProt P08908); settings: 10 μM
T20 construct: purchased DiscoverX (Eurofins) SafetyScan44
Method: as §1

[22] = molecular target: T21, AChE (Homo sapiens, UniProt P22303); settings: 10 μM; Inhibitor mode
T21 construct: purchased DiscoverX (Eurofins) SafetyScan44
Method: as §1

[23] = molecular target: T22, NET (Homo sapiens, UniProt P23975); settings: 10 μM; Blocker mode
T22 construct: purchased DiscoverX (Eurofins) SafetyScan44
Method: as §1

[24] = molecular target: T23, AR (Homo sapiens, UniProt P10275); settings: 10 μM
T23 construct: purchased DiscoverX (Eurofins) SafetyScan44
Method: as §1

[25] = molecular target: T24, DRD2S (Homo sapiens, UniProt P14416); settings: 10 μM
T24 construct: purchased DiscoverX (Eurofins) SafetyScan44
Method: as §1

[26] = molecular target: T25, CHRM3 (Homo sapiens, UniProt P20309); settings: 10 μM
T25 construct: purchased DiscoverX (Eurofins) SafetyScan44
Method: as §1

[27] = molecular target: T26, OPRD1 (Homo sapiens, UniProt P41143); settings: 10 μM
T26 construct: purchased DiscoverX (Eurofins) SafetyScan44
Method: as §1

[28] = molecular target: T27, VEGFR2 (Homo sapiens, UniProt P35968); settings: 10 μM; Inhibitor mode
T27 construct: purchased DiscoverX (Eurofins) SafetyScan44
Method: as §1

[29] = molecular target: T28, CNR2 (Homo sapiens, UniProt P34972); settings: 10 μM
T28 construct: purchased DiscoverX (Eurofins) SafetyScan44
Method: as §1

[30] = molecular target: T29, DRD1 (Homo sapiens, UniProt P21728); settings: 10 μM
T29 construct: purchased DiscoverX (Eurofins) SafetyScan44
Method: as §1

[31] = molecular target: T30, PDE4D2 (Homo sapiens, UniProt Q08499); settings: 10 μM; Inhibitor mode
T30 construct: purchased DiscoverX (Eurofins) SafetyScan44
Method: as §1

[32] = molecular target: T31, ADRA2A (Homo sapiens, UniProt P08913); settings: 10 μM
T31 construct: purchased DiscoverX (Eurofins) SafetyScan44
Method: as §1

[33] = molecular target: T32, HTR3A (Homo sapiens, UniProt P46098); settings: 10 μM
T32 construct: purchased DiscoverX (Eurofins) SafetyScan44
Method: as §1

[34] = molecular target: T33, ADRB1 (Homo sapiens, UniProt P08588); settings: 10 μM
T33 construct: purchased DiscoverX (Eurofins) SafetyScan44
Method: as §1

[35] = molecular target: T34, SERT (Homo sapiens, UniProt P31645); settings: 10 μM; Blocker mode
T34 construct: purchased DiscoverX (Eurofins) SafetyScan44
Method: as §1

[36] = molecular target: T35, CAV1.2 (Homo sapiens, UniProt Q13936); settings: 10 μM; Blocker mode
T35 construct: purchased DiscoverX (Eurofins) SafetyScan44
Method: as §1

[37] = molecular target: T36, CNR1 (Homo sapiens, UniProt P21554); settings: 10 μM
T36 construct: purchased DiscoverX (Eurofins) SafetyScan44
Method: as §1

T36 sequence (P21554 whole entry): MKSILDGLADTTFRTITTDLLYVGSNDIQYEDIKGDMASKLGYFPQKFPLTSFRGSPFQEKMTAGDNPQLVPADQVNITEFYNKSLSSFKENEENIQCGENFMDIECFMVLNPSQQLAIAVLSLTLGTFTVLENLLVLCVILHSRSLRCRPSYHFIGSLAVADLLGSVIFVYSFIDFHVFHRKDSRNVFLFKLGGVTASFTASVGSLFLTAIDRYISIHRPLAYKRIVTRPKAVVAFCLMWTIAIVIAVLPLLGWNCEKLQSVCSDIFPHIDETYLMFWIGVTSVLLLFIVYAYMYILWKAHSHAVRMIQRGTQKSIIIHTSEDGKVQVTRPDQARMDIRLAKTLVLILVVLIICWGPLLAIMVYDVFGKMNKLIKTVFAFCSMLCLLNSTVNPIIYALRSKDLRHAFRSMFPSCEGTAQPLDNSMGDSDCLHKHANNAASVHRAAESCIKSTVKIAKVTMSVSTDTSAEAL
T1 sequence (P37288 whole entry): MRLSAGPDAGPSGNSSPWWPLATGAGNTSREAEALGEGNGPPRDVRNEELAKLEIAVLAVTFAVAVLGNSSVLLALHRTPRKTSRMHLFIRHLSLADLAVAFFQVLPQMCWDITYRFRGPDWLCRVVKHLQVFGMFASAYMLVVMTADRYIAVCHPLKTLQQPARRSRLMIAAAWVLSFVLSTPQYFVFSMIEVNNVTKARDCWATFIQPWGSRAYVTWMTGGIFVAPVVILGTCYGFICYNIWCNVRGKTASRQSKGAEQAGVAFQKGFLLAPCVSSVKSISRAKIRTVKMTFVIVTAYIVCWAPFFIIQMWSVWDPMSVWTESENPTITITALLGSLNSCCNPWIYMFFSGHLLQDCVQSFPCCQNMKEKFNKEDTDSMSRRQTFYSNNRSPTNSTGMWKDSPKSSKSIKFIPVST
T19 sequence (P41595 whole entry): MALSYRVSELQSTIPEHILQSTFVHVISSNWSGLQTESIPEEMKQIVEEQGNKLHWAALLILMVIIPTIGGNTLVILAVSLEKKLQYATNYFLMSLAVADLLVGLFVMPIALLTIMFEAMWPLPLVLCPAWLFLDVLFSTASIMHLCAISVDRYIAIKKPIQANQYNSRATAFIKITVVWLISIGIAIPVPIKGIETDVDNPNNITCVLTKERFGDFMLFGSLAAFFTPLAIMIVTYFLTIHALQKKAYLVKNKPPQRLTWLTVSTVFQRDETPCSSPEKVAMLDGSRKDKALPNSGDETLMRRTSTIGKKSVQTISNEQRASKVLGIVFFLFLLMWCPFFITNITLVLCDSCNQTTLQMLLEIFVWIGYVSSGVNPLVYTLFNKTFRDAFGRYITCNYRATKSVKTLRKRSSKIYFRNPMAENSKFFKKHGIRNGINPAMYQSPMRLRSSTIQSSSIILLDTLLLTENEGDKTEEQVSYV
T23 sequence (P10275 whole entry): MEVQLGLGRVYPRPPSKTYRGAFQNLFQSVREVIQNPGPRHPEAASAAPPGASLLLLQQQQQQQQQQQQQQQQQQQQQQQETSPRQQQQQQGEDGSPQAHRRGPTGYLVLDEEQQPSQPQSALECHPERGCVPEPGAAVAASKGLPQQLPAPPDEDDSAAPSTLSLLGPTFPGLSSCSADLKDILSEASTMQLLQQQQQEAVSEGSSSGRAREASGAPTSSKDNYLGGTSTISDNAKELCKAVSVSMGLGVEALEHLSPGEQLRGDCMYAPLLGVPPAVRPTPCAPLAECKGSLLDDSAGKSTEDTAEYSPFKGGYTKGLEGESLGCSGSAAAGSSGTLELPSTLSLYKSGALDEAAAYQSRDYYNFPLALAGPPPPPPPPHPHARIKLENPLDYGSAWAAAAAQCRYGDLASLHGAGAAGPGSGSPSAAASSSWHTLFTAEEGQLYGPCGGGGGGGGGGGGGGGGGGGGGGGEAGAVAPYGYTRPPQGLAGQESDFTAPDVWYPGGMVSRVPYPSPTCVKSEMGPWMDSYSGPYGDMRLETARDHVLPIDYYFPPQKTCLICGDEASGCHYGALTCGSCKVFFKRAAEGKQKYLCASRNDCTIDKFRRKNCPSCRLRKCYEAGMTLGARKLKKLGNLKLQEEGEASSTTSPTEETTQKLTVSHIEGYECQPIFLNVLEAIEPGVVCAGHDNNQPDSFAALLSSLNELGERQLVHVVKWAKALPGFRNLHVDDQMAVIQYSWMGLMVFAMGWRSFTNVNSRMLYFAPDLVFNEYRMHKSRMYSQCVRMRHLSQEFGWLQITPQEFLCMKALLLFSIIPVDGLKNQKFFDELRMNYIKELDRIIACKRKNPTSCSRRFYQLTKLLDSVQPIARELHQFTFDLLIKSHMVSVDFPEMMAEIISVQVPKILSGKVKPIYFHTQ
T33 sequence (P08588 whole entry): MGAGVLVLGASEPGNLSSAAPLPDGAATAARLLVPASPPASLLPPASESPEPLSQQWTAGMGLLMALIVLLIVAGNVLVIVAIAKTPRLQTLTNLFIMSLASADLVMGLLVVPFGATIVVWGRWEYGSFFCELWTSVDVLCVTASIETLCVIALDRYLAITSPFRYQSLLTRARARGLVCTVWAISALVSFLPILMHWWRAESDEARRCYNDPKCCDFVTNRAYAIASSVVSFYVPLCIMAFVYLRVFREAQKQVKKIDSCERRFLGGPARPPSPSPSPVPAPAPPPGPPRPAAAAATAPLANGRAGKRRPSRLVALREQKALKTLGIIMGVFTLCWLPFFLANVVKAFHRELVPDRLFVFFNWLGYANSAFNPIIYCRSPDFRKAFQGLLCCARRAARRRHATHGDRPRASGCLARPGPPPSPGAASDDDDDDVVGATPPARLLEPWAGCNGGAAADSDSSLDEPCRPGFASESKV
T12 sequence (P29274 whole entry): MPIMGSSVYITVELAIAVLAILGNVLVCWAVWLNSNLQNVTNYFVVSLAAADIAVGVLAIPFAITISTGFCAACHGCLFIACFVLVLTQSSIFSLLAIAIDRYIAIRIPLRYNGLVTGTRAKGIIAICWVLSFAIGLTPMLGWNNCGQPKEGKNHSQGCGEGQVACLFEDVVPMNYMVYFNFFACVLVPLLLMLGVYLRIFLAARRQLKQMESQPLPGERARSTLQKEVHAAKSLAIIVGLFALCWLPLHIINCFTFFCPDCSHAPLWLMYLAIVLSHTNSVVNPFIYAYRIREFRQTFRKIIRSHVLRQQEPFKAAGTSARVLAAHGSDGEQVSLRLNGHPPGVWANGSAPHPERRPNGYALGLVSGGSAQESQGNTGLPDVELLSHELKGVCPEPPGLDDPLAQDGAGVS
T5 sequence (P35348 whole entry): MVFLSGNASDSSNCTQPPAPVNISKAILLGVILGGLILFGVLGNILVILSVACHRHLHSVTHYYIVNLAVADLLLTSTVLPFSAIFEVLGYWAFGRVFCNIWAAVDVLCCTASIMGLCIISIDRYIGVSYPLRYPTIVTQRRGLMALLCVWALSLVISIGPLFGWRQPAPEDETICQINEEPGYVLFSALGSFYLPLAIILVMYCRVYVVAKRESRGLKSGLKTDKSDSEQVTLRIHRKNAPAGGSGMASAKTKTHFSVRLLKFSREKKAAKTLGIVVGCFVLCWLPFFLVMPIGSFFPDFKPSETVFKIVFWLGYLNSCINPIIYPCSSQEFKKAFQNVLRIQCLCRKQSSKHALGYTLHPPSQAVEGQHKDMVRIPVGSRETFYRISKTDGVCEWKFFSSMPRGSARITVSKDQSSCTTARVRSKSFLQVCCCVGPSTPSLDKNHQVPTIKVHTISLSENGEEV
T7 sequence (P41145 whole entry): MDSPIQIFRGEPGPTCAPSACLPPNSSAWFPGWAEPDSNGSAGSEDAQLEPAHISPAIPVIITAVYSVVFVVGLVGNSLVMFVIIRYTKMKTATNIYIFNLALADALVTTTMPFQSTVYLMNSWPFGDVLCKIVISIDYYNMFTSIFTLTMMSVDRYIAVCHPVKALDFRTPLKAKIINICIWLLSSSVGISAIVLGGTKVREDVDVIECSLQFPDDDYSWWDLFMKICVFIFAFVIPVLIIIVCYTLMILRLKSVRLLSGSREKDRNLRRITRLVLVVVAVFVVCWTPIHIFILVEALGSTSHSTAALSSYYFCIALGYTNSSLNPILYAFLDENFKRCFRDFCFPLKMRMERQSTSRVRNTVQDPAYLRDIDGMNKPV
T20 sequence (P08908 whole entry): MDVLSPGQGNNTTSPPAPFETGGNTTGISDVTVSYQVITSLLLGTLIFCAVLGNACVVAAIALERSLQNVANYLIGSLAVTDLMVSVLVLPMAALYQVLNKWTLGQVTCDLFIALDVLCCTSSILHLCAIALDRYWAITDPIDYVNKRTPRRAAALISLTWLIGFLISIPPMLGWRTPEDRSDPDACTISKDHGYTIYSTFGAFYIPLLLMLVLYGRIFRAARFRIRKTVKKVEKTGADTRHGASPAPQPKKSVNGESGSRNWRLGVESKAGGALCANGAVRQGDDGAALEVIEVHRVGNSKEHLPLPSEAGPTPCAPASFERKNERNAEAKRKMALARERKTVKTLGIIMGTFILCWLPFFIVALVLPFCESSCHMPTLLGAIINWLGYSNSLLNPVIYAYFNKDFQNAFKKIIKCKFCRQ
T15 sequence (P11229 whole entry): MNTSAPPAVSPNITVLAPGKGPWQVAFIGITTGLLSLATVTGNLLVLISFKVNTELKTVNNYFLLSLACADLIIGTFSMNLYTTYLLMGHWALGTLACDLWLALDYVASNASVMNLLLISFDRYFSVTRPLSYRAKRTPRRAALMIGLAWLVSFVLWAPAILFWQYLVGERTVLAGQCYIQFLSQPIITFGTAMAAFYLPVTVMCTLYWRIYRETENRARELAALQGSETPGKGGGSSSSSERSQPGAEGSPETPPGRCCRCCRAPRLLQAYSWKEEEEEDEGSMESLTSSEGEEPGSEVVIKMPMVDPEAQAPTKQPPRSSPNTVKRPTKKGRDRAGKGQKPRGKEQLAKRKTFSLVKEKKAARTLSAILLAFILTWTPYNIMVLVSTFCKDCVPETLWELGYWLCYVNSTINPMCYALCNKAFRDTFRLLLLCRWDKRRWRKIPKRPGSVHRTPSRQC

`CC(C)(C)N1CCN(Cc2cc3nc(-c4cncc5[nH]ccc45)cc(N4CCOCC4)n3n2)CC1` [CPL302-253] was tested, and the “% Response AVPR1A Agonist” value ([1]; Agonist mode) was -3.2%, the “% Response AVPR1A Antagonist” value ([1]; Antagonist mode) was -5.2% and the “% Response INSR Inhibitor” value [2] was -6.5%. The “% Response OPRM1 Agonist” value ([3]; Agonist mode) was -9.0%, the “% Response OPRM1 Antagonist” value ([3]; Antagonist mode) was 0.2% and the “% Response CHRM2 Agonist” value ([4]; Agonist mode) was 8.2%. For the same compound, the “% Response CHRM2 Antagonist” value ([4]; Antagonist mode) was 35.2%, the “% Response ADRA1A Agonist” value ([5]; Agonist mode) was -22.5% and the “% Response ADRA1A Antagonist” value ([5]; Antagonist mode) was -2.8%. The “% Response COX2 Inhibitor” value [6] was 11.9%, the “% Response OPRK1 Agonist” value ([7]; Agonist mode) was -11.0% and the “% Response OPRK1 Antagonist” value ([7]; Antagonist mode) was 0.3%. The “% Response GABAA Blocker” value ([8]; Blocker mode) was 1.4%, the “% Response GABAA Opener” value ([8]; Opener mode) was -2.3% and the “% Response ROCK1 Inhibitor” value [9] was 10.3%. For the same compound, the “% Response HTR2A Agonist” value ([10]; Agonist mode) was -1.5%, the “% Response HTR2A Antagonist” value ([10]; Antagonist mode) was 11.5% and the “% Response HRH2 Agonist” value ([11]; Agonist mode) was 0.6%. The “% Response HRH2 Antagonist” value ([11]; Antagonist mode) was 4.2%, the “% Response LCK Inhibitor” value [12] was 16.3% and the “% Response ADORA2A Agonist” value ([13]; Agonist mode) was -0.8%. The “% Response ADORA2A Antagonist” value ([13]; Antagonist mode) was 11.7%, the “% Response DAT Blocker” value [14] was 56.1% and the “% Response MAOA Inhibitor” value [15] was 8.5%. For the same compound, the “% Response CHRM1 Agonist” value ([16]; Agonist mode) was 1.2%, the “% Response CHRM1 Antagonist” value ([16]; Antagonist mode) was 48.1% and the “% Response NAV1.5 Blocker” value [17] was 9.7%. For the same compound, the “% Response HTR1B Agonist” value ([18]; Agonist mode) was 8.0%, the “% Response HTR1B Antagonist” value ([18]; Antagonist mode) was 0.1% and the “% Response COX1 Inhibitor” value [19] was 4.7%. The “% Response HTR2B Agonist” value ([20]; Agonist mode) was 1.5%, the “% Response HTR2B Antagonist” value ([20]; Antagonist mode) was 12.6% and the “% Response HTR1A Agonist” value ([21]; Agonist mode) was 5.6%. The “% Response HTR1A Antagonist” value ([21]; Antagonist mode) was -4.8%, the “% Response AChE Inhibitor” value [22] was 27.8% and the “% Response NET Blocker” value [23] was 8.5%. For the same compound, the “% Response AR Agonist” value ([24]; Agonist mode) was -0.7%, the “% Response AR Antagonist” value ([24]; Antagonist mode) was 8.5% and the “% Response DRD2S Agonist” value ([25]; Agonist mode) was -4.5%. The “% Response DRD2S Antagonist” value ([25]; Antagonist mode) was -1.1%, the “% Response CHRM3 Agonist” value ([26]; Agonist mode) was 1.2% and the “% Response CHRM3 Antagonist” value ([26]; Antagonist mode) was 12.6%. For the same compound, the “% Response OPRD1 Agonist” value ([27]; Agonist mode) was -6.4%, the “% Response OPRD1 Antagonist” value ([27]; Antagonist mode) was 0.4% and the “% Response VEGFR2 Inhibitor” value [28] was 30.7%. For the same compound, the “% Response CNR2 Agonist” value ([29]; Agonist mode) was 16.4%, the “% Response CNR2 Antagonist” value ([29]; Antagonist mode) was 1.1% and the “% Response DRD1 Agonist” value ([30]; Agonist mode) was 1.1%. For the same compound, the “% Response DRD1 Antagonist” value ([30]; Antagonist mode) was 9.3%, the “% Response PDE4D2 Inhibitor” value [31] was 2.0% and the “% Response ADRA2A Agonist” value ([32]; Agonist mode) was 0.4%. The “% Response ADRA2A Antagonist” value ([32]; Antagonist mode) was -0.7%, the “% Response HTR3A Blocker” value ([33]; Blocker mode) was 19.5% and the “% Response HTR3A Opener” value ([33]; Opener mode) was -0.8%. The “% Response ADRB1 Agonist” value ([34]; Agonist mode) was 0.5%, the “% Response ADRB1 Antagonist” value ([34]; Antagonist mode) was 26.6% and the “% Response SERT Blocker” value [35] was 21.5%. The “% Response CAV1.2 Blocker” value [36] was -1.1%, the “% Response CNR1 Agonist” value ([37]; Agonist mode) was -9.2% and the “% Response CNR1 Antagonist” value ([37]; Antagonist mode) was -1.3%.
